The source made the active and inactive calls.
Columns and labels:
[1] = biological target: T1, Short transient receptor potential channel 4 (Mus musculus, UniProt Q9QUQ5); assay: block of DAMGO-driven TRPC4 calcium entry – cell-based, HEK293 TRPC4/mu-opioid, Fluo-4 calcium, dose response (AID 434942); assay type: functional;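 also: potency of inhibitors blocking the TRPC4 calcium response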
T1 sequence (Q9QUQ5 whole entry): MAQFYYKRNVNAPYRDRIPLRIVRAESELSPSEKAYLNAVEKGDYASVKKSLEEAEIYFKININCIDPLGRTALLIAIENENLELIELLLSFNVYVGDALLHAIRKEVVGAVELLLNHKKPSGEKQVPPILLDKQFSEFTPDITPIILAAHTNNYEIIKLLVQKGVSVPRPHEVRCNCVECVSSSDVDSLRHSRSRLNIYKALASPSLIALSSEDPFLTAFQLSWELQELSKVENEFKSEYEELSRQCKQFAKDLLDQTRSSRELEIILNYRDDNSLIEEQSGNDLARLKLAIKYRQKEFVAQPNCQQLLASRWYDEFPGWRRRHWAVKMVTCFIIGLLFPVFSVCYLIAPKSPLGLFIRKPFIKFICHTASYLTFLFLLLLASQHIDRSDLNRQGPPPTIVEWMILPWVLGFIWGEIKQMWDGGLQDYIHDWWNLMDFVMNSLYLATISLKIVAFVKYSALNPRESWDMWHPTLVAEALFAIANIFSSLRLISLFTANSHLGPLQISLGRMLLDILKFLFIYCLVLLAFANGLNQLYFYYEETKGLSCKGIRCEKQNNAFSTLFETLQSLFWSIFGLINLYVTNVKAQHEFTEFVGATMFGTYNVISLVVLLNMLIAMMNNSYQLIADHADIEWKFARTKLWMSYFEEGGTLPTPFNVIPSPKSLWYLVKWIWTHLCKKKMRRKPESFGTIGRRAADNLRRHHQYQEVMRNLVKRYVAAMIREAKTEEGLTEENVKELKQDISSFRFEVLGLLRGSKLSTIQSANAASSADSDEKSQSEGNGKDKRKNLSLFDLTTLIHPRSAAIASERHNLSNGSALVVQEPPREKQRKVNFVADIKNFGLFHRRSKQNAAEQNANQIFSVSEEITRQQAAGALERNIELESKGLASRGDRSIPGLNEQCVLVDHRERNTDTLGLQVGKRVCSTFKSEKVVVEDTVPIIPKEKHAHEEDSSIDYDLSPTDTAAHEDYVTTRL

[2] = biological target: T1, Short transient receptor potential channel 4; assay: SAR Analysis for the identification of selective inhibits of the transient receptor potential cation channel C4 (TRPC4): Automated Electrophysiology. [Related pubchem assays (depositor defined):AID2256]; assay type: functional
[3] = biological target: T2, Beta-2 adrenergic receptor (Homo sapiens, UniProt P07550); assay: Dose response for HTS for Beta-2AR agonists via FAP method from Powderset3.; assay type: functional
T2 sequence (P07550 whole entry): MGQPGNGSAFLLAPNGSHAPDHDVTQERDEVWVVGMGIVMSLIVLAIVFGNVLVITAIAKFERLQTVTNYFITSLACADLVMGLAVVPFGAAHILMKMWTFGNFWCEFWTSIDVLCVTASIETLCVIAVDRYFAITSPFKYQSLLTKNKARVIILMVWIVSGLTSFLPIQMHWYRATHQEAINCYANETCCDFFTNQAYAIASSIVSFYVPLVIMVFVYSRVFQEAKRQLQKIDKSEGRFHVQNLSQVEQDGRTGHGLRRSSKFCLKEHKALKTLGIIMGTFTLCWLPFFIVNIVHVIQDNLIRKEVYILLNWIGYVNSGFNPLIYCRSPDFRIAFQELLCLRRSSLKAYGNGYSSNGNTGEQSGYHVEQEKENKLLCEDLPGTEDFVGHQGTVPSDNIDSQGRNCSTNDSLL

[4] = biological target: G-protein coupled receptor 55 (Homo sapiens, UniProt Q9Y2T6); assay: blockers of GPR55 signalling, imaged – imaging, image-based, counter-screen for GPR35 antagonist project, SAR follow-up (AID 2397); assay type: functional
Chain of G-protein coupled receptor 55 (Q9Y2T6 whole entry): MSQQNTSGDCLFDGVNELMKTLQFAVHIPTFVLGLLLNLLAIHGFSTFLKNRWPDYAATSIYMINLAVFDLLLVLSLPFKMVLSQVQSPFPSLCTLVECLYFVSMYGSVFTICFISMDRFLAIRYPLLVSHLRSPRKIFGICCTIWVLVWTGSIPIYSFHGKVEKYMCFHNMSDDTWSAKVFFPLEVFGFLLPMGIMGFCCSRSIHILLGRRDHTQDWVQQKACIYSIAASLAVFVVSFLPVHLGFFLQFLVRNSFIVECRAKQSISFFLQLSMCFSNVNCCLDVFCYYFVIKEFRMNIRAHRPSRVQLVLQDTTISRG

[5] = biological target: T3, G-protein coupled receptor 35 (Homo sapiens, UniProt Q9HC97); assay: inhibition of zaprinast-stimulated GPR35 beta-arrestin translocation – imaging, U2OS, beta-arrestin-GFP, zaprinast agonist, primary screen (AID 2058); assay type: functional;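 also: antagonist potency meaning inhibition of agonist-induced arrestin redistribution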
T3 sequence (Q9HC97 whole entry): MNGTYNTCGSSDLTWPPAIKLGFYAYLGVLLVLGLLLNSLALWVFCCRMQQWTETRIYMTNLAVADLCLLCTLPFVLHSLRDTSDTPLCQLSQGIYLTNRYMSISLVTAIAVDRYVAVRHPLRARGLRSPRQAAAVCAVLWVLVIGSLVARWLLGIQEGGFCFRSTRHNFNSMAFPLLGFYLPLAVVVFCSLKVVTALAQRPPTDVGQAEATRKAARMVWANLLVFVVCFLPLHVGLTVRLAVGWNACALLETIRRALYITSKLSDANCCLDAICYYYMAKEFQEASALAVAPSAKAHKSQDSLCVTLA

[6] = microbe, parasite or virus in culture; assay type: functional; settings: Mycobacterium tuberculosis
[7] = viability of HCT116 lacking mutant beta-catenin – cell-based, human colon tumor, dose response (AID 1045); assay type: functional;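 also: HCT116 colon tumor cells with beta catenin knocked out; cells exposed to compound for 60 hours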
[8] = viability of PTEN-deleted HCT116 cells – cell-based, HCT116 PTEN knockout, dose response (AID 1047); assay type: functional;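 also: HCT116 colon tumor cells with PTEN knocked out; cells exposed to compound for 60 hours before readout; potency for loss of cell viability measured by luminescence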
[9] = biological target: T2, Beta-2 adrenergic receptor; assay: ADRB2 activation measured by internalization – cell-based, FAP fluorogen, flow cytometry, cherry pick 1, dose response (AID 588763); assay type: functional
[10] = biological target: T3, G-protein coupled receptor 35; assay: SAR Analysis for the identification of Selective Antagonists of ERK1/2 Activity in GPR35-Overexpressing U2OS Cells. [Related pubchem assays: 2079, 2058 ]; assay type: functional, cell-based
[11] = biological target: Cytochrome P450 2D6 (Homo sapiens, UniProt P10635);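 also: CYP2D6 member of a cytochrome P450 panel assay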
[12] = Trypanosoma cruzi growth suppression in host cells – NIH3T3 host cells, beta-gal luminescence, confirmation (AID 2044); assay type: functional, cell-based;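 also: intracellular parasites grown in NIH/3T3 mouse fibroblasts as host cells; luminescent beta-galactosidase reporter signal from transgenic T. cruzi replicating inside host cells; inhibitors lower the luminescence signal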
[13] = NIH3T3 cell viability loss – ATP luminescence, mouse fibroblasts, counter-screen, dose response (AID 2010); assay type: functional, cell-based;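 also: cells exposed to compound for about 90 hours before reading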
[14] = biological target: Intestinal-type alkaline phosphatase (Homo sapiens, UniProt P09923); assay: inhibition of human intestinal alkaline phosphatase – biochemical, dose response (AID 488876); assay type: functional
[15] = biological target: Intestinal-type alkaline phosphatase (Mus musculus, UniProt P24822); assay: PubChem AID 488785; assay type: functional
[16] = biological target: T4, Alkaline phosphatase, tissue-nonspecific isozyme (Homo sapiens, UniProt P05186); assay: TNAP enzyme inhibition by screening hits, dose response, selectivity assay for mouse IAP inhibitor project, biochemical, human TNAP, uHTS hits (AID 488906); assay type: functional
T4 sequence (P05186 whole entry): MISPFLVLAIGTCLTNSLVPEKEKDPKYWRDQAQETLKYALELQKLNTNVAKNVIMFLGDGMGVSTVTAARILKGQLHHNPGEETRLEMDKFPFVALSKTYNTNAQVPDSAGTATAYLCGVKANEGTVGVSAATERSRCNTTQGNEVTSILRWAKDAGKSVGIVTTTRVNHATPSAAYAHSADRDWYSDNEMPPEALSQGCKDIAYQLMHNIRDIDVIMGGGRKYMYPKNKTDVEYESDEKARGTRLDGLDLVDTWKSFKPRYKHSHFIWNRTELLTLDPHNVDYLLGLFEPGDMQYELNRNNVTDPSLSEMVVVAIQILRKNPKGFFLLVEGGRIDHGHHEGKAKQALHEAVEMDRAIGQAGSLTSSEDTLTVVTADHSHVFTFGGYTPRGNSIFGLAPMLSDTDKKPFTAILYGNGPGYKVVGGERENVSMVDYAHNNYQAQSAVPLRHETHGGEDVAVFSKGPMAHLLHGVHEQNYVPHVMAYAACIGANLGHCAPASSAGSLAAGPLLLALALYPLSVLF

[17] = biological target: T5, Dual specificity protein phosphatase 3 (Homo sapiens, UniProt P51452); assay: VHR1 phosphatase inhibitors, biochemical (AID 1878)
T5 sequence (P51452 whole entry): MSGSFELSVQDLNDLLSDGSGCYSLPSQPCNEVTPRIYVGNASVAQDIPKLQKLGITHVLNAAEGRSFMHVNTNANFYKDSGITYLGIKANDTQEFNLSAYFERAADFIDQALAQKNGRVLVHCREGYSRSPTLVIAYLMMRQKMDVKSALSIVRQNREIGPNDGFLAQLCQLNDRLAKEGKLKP

[18] = biological target: T6, Voltage-gated N-type calcium channel alpha-1B subunit/Amyloid beta A4 precursor protein-binding family A member 1 (Homo sapiens, UniProt Q00975+Q02410); assay type: protein assay
T6 sequence (Q00975 whole entry): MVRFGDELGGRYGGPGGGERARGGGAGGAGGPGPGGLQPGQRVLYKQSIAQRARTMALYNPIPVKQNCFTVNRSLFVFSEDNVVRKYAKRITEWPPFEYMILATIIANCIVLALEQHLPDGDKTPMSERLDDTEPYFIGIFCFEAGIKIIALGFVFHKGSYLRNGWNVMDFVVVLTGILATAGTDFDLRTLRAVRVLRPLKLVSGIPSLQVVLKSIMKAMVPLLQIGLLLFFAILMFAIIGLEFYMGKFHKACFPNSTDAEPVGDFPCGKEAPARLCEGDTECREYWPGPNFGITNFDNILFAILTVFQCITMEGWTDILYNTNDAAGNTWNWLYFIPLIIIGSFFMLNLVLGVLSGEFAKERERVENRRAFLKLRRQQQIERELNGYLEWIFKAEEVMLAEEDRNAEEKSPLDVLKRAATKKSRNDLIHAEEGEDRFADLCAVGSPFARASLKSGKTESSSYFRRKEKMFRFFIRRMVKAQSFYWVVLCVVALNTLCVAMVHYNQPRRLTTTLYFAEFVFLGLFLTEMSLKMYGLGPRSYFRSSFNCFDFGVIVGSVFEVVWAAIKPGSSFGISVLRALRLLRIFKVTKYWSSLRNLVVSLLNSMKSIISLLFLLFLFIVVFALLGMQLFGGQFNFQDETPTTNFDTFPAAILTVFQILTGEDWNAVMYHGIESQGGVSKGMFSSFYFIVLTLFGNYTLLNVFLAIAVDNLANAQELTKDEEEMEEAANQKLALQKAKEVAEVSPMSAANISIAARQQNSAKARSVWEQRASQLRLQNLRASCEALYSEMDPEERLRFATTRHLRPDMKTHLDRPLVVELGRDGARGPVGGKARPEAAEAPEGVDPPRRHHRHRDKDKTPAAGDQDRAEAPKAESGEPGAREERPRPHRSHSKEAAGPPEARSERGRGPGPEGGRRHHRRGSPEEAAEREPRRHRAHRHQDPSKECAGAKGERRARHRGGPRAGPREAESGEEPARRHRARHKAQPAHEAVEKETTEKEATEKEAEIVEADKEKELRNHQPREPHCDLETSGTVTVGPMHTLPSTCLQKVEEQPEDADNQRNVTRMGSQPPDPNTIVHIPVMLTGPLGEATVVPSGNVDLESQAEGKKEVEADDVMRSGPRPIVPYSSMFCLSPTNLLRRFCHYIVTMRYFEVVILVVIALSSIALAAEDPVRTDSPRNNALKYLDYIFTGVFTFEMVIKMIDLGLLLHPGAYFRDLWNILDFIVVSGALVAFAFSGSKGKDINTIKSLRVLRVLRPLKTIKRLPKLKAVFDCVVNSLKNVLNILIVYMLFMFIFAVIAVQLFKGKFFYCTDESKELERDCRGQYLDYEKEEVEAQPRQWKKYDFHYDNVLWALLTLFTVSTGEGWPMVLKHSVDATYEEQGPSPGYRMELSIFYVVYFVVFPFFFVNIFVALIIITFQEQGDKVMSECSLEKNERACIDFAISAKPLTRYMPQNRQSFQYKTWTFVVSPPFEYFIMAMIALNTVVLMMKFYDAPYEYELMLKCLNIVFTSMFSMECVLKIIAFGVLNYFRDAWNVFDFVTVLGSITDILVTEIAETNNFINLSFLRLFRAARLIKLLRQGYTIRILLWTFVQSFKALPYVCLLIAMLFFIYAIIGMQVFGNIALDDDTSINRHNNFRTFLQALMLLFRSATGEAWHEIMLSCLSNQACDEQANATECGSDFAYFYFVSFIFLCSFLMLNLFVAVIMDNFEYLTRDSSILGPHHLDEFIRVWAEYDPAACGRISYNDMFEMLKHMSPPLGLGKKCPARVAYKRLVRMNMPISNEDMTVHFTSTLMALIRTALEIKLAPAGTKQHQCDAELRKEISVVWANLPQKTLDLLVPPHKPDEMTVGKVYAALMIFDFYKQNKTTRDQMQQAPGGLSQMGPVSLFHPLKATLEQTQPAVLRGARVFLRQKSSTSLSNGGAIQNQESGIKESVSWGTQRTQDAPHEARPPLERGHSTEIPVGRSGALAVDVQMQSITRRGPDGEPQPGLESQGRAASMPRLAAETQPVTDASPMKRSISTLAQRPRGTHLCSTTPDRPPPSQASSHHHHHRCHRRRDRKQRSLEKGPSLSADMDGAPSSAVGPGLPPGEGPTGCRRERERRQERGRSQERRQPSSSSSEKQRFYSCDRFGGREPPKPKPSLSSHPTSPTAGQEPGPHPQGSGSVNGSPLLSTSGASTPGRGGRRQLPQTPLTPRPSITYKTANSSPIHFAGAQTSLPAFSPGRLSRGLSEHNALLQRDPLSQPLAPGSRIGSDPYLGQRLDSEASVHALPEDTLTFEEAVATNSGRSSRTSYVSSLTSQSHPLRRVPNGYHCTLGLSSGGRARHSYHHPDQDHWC
T6 sequence (Q02410 whole entry): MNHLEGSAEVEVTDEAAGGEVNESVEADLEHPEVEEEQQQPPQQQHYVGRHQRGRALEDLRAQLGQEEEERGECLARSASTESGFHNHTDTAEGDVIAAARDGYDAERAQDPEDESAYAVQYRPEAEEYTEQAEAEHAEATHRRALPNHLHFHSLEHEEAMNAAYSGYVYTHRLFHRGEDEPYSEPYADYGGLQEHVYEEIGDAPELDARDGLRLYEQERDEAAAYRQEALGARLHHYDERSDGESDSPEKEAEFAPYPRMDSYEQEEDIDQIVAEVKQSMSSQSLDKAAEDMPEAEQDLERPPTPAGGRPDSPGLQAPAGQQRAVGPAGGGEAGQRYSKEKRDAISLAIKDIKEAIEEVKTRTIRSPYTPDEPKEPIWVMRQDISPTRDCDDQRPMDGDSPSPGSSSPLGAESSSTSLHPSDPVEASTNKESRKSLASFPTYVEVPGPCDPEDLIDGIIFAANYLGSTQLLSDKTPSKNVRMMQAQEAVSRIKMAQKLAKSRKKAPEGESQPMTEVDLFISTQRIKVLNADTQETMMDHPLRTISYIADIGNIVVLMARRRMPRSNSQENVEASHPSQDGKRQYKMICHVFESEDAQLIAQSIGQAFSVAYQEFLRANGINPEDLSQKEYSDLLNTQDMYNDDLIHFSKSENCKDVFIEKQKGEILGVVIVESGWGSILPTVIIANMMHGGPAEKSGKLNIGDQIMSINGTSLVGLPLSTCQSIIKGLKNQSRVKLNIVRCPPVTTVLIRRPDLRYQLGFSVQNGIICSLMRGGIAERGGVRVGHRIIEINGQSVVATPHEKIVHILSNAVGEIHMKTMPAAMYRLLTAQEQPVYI

[19] = biological target: T6, Voltage-gated N-type calcium channel alpha-1B subunit/Amyloid beta A4 precursor protein-binding family A member 1; assay type: protein assay; remark: listed apart in the source
[20] = biological target: T7, Carboxy-terminal domain RNA polymerase II polypeptide A small phosphatase 1 (Homo sapiens, UniProt Q9GZU7); assay: CTDSP1 inhibitors, concentration-response, biochemical, absorbance readout, ultra-high-throughput screen actives (AID 540297); assay type: functional
T7 sequence (Q9GZU7 whole entry): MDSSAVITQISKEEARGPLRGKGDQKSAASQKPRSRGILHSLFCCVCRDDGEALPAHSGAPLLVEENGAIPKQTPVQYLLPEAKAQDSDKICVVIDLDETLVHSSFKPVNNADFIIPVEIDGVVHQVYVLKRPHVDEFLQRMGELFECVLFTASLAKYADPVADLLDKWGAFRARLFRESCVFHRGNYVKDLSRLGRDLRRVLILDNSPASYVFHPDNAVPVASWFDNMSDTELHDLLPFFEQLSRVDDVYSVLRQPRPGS

[21] = biological target: T8, Dual specificity protein phosphatase 6 (Rattus norvegicus, UniProt Q64346); assay: inhibition of rat DUSP6 enzyme activity – biochemical, in vitro, primary screen (AID 425)
T8 sequence (Q64346 whole entry): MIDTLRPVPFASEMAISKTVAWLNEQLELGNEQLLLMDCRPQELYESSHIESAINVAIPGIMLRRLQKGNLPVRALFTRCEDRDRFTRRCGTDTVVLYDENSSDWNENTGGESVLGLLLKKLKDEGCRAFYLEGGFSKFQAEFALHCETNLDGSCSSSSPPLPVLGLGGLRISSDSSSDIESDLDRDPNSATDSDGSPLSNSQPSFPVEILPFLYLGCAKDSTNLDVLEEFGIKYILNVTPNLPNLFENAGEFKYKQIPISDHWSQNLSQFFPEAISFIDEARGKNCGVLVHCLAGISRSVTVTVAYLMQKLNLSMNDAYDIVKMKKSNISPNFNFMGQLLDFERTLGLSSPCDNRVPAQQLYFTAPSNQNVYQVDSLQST

[22] = biological target: T5, Dual specificity protein phosphatase 3; assay: VHR1 phosphatase inhibitors, primary screen, biochemical, absorbance, uHTS (AID 1654)
[23] = biological target: CAAX prenyl protease 1 (Saccharomyces cerevisiae S288c, UniProt P47154); assay: yeast CAAX protease Ste24 inhibition – biochemical, S. cerevisiae, plate reader, cherry-pick, dose response (AID 488815)
[24] = biological target: Trypsin (Sus scrofa, UniProt P00761); assay: trypsin protease activity blockade – biochemical, quenched peptide fluorescence, cherry-pick, selectivity assay for Rce1 protease inhibitor project, dose response (AID 488789)
Chain of Trypsin (P00761 whole entry): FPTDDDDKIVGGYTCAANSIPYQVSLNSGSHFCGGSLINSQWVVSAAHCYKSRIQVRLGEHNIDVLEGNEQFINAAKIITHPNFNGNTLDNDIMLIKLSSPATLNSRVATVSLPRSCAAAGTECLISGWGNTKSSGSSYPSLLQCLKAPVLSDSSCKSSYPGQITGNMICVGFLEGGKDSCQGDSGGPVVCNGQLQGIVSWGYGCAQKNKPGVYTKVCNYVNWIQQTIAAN

[25] = biological target: CAAX prenyl protease 2 (Homo sapiens, UniProt Q9Y256); assay: inhibition of Ras-converting CAAX protease Rce1 – biochemical, yeast membranes, quenched-peptide fluorescence, cherry-pick, dose response (AID 588849)
Chain of CAAX prenyl protease 2 (Q9Y256 whole entry): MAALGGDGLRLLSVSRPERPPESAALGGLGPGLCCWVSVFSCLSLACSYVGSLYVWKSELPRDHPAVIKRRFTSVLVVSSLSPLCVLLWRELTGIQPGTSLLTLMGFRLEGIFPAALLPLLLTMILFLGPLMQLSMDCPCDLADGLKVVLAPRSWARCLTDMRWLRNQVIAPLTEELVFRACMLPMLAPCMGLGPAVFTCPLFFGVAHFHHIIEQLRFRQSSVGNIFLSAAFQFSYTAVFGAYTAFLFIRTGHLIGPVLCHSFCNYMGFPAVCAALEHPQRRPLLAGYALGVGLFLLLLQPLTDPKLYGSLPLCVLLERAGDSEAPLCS

[26] = biological target: FAD-linked sulfhydryl oxidase ALR (Homo sapiens, UniProt P55789); assay: ALR-catalysed DTT oxidation blockers – biochemical, H2O2 detection, luminescence, cherry-pick, dose response (AID 493248)

With `N=C(NC1CCCCC1)c1ccc(Cl)cc1` the EC50 [1] was 1.68 µM (active) and the IC50 [2] was 4.56 µM (active).
For `Cc1ccccc1N1CCN(c2ncnc3c2cnn3Cc2ccc(Cl)cc2)CC1`, the EC50 [3] was 1.14 µM (active), the IC50 [4] was > 32 µM (inactive) and the IC50 [5] was 0.615 µM (active). The CC50 [6] was > 40 µM (active), the EC50 [7] was 54.1 µM (active) and the EC50 [8] was 42.2 µM (active). For the same compound, the EC50 [9] was 4.09 µM (active) and the IC50 [10] was > 32 µM (not active).
For `Cc1cc2c(s1)CCCCC(=O)N2`, the AC50 [11] was “inconclusive”.
With `Cc1nn(C(C)C)c(C)c1CN1CCC(C(=O)Nc2cccc(-c3cccc(F)c3)c2)CC1` the EC50 [12] was 1.15 µM (active), the EC50 [13] was 30.4 µM (active) and the IC50 [14] was 12 µM (active). For the same compound, the IC50 [15] was 7.53 µM (active) and the IC50 [16] was 53 µM (active).
With `COc1ccc(NC(=O)c2cc3c(COC(C)=O)cnc(C)c3o/c2=N\c2cccc(C(=O)O)c2)c(OC)c1` the IC50 [17] was 1.53 µM (active), the IC50 [18] was > 50 µM (inactive) and the IC50 [19] was 3.13 µM (active). The IC50 [20] was 0.737 µM (active), the IC50 [21] was > 158 µM (not active) and the IC50 [22] was 4.9 µM (active).
With `Oc1ccc(-c2cn3cc(C(F)(F)F)ccc3n2)cc1` the AC50 [23] was 8.29 µM (active), the AC50 [24] was 11.1 µM (active) and the AC50 [25] was 10.5 µM (active). The AC50 [26] was 3.4 µM (active).
